Assay results: patent US7524849B2, “5-arylpyrimidines as anticancer agents” (Wyeth Holdings Corporation, priority 2003, dated 2009)
pIC50: −log10 of the molar value. Like-named read-outs stand apart in the source and are kept apart here. Marks after values point to notes of the source that are not given here.

Columns and labels:
COLO 205 cells = test: MTS cytotoxicity test with COLO 205 cells; type: cell-based, human; conditions: three days with compound
Procedure, shortened: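 COLO 205 human colon carcinoma cells, 1000/well, exposed for three days at 37 °C to nine 2-fold dilutions, top final concentration typically 5 μM. MTS formazan absorbance normalised to a time-0 plate; IC50 taken as concentration halfway between untreated maximum and high-drug minimum.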

S1-M1 cells = test: MTS cytotoxicity test with S1-M1 cells (MXR); type: cell-based, human; conditions: for Ratio: IC50 on S1-M1 cells/IC50 on S1 cells; for IC50: S1-M1 cells, mean of 2 experiments
Procedure, shortened: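 S1 parental colon carcinoma line and MXR-overexpressing S1-M1 seeded at 1000 cells/well, 24 h, then exposed 3 days to nine 2-fold compound dilutions in quadruplicate. MTS formazan absorbance normalised to time-0 plate; IC50 taken at half-way between maximum and minimum colour yield.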

[1] = tested on: H157 Human Non-Small Cell Lung Carcinoma; conditions: for growth of xenografts: H157 NSCLC;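 for all read-outs here: subcutaneous flank tumors in female athymic nu/nu mice, staged near 100 mm^3 on day 0, tumor volume from caliper measurements, vehicle-dosed controls on the same schedule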
Protocol: The ability of compounds of this invention to inhibit tumor growth in animals is studied in the athymic mouse xenograft standard pharmacological test. Female nu/nu mice in an outbred albino background are obtained from Charles River Laboratories (Wilmington, Mass.). Animals are injected subcutaneously on the flank with the desired tumor cell suspension. Several days later, mice with tumors of approximately 100 mm^3 are selected from those injected (staged) and randomly distributed into groups of 5-10. The day of staging is called day 0. Compounds of the invention, formulated in saline, are administered to animals by intravenous injection or oral gavage on various schedules starting on day 0 or 1, as noted in the tables. The control group in each experiment is dosed with vehicle on the same schedule. Tumor size is measured every 3-7 days with calipers in two orthogonal dimensions, and tumor volume is calculated from the formula volume=[(length×width^2)/2].
Tumor/Control (T/C) is obtained by dividing the mean tumor volume of the treated group by the mean tumor volume of the control group on each measurement day. […] A p value≦0.05, determined by one-side Student's t-test, is required for statistical significance. A treatment dose is defined as toxic if more than 30% of the animals die from a compound-related toxicity.

[2] = tested on: highly purified tubulin (tubulin heterodimer); test: Competitive binding test, [3H]colchicine; parameters: species or system bovine; conditions: competitor 100 μM, [3H]colchicine 50 nM, percent of binding to control without competitor
Protocol: Medium is RPMI-1640 with L-glutamine, supplemented with 10% heat-inactivated fetal calf serum, 100 units/mL penicillin, and 100 μg/mL streptomycin (Gibco, Grand Island, N.Y.). Microtubule-associated protein (MAP)-rich tubulin, containing about 70% tubulin and 30% MAPs (#ML113), and highly purified tubulin (>99% pure, #TL238), both from bovine brain, are obtained from Cytoskeleton, Inc., Denver, Colo. PEM buffer (80 mM piperazine-N,N′-bis[2-ethanesulfonic acid], pH 6.9, 1 mM ethylene glycol-bis(β-aminoethyl ether)-N,N,N′,N′-tetraacetic acid, 1 mM magnesium chloride) and guanosine 5′-triphosphate (GTP) are also obtained from Cytoskeleton. […] [^3H]vinblastine, specific activity 9.60 Ci/mmol and MicroSpin G-50 columns are obtained from Amersham Biosciences (Piscataway, N.J.). […] Other reagents are obtained from Sigma (St. Louis, Mo.).
The binding of examples of this invention to highly purified tubulin is studied by competitive inhibition methods.
These solutions are incubated at 24° for 1 hr and then applied to MicroSpin G-50 columns which are centrifuged for 2 min at 3000 rpm in an Eppendorf 5415C microfuge. An aliquot of each column effluent (containing tubulin and bound radioligand) is mixed with scintillation fluid and counted in a liquid scintillation spectrometer. […] Quadruplicates are averaged, and the ability of the competitor to inhibit the binding of the radioligand is expressed as a percentage of control binding in the absence of any competitor.

[3] = 1 mg/kg PO, schedule days 1, 7, H157
[4] = 5 mg/kg PO, schedule days 1, 7, H157
[5] = 5 mg/kg IV, schedule day 0, H157 (Table 11)
[6] = 5 mg/kg PO, schedule day 0, H157
[7] = 1.5 mg/kg IV, schedule days 0, 7, H157
[8] = 3 mg/kg IV, schedule days 0, 7, H157

CNCCCOc1cc(F)c(-c2c(Cl)nc(-c3cnccn3)nc2N[C@@H](C)C(F)(F)F)c(F)c1.Cl [Example 24a, 6-Chloro-5-{2,6-difluoro-4-[3-(methylamino)propoxy]phenyl}-2-pyrazin-2-yl-N-[(1S)-2,2,2-trifluoro-1-methylethyl]pyrimidin-4-amine hygrogen chloride]
pIC50 (COLO 205 cells): 8.05
Ratio (S1-M1 cells): 2.7
IC50 (S1-M1 cells): 53 nM
T/C on day 0 [1, 3]: 0.96
T/C on day 4 [1, 3]: 0.73*
T/C on day 7 [1, 3]: 0.70
T/C on day 10 [1, 3]: 0.58
T/C on day 13 [1, 3]: 0.50*
T/C on day 0 [1, 4]: 0.98
T/C on day 4 [1, 4]: 0.64**
T/C on day 7 [1, 4]: 0.51**
T/C on day 10 [1, 4]: 0.16**
T/C on day 13 [1, 4]: 0.12**
growth of xenografts ([1]; orally on days 1 and 7 with 5 or 1 mg/kg/dose): inhibits the growth

CNCCCOc1cc(F)c(-c2c(Cl)nc(-c3ccccn3)nc2N[C@@H](C)C(F)(F)F)c(F)c1.Cl [Example 29a, 6-Chloro-5-{2,6-difluoro-4-[3-(methylamino)propoxy]phenyl}-2-pyridin-2-yl-N-[(S)-2,2,2-trifluoro-1-methylethyl]pyrimidin-4-amine hydrogen chloride]
pIC50 (COLO 205 cells; Homo sapiens, 72 h): 8.28
IC50 (S1-M1 cells; Homo sapiens): 21 nM
Ratio (S1-M1 cells): 2.7
T/C on day 0 [1, 5]: 1.03
T/C on day 2 [1, 5]: 0.34**
T/C on day 7 [1, 5]: Toxic
T/C on day 0 [1, 6]: 1.02
T/C on day 2 [1, 6]: 0.43**
T/C on day 7 [1, 6]: 0.37**
T/C on day 9 [1, 6]: 0.33**
T/C on day 14 [1, 6]: 0.25**
growth of xenografts ([1]; orally on day 0 with 5 mg/kg): inhibits the growth

CNCCCOc1cc(F)c(-c2c(Cl)nc(-n3cccn3)nc2N[C@@H](C)C(F)(F)F)c(F)c1.Cl [Example 32a, 6-Chloro-5-{2,6-difluoro-4-[3-(methylamino)propoxy]phenyl}-2-(1H-pyrazol-1-yl)-N-[(1S)-2,2,2-trifluoro-1-methylethyl)pyrimidin-4-amine Hydrogen Chloride]
pIC50 (COLO 205 cells; Homo sapiens, 72 h): 8.62
IC50 (S1-M1 cells; Homo sapiens): 8.7 nM
Ratio (S1-M1 cells): 0.9
T/C on day 0 [1, 7]: 0.95
T/C on day 4 [1, 7]: 0.89
T/C on day 7 [1, 7]: 0.63*
T/C on day 13 [1, 7]: 0.48*
T/C on day 0 [1, 8]: 0.95
T/C on day 4 [1, 8]: 0.72
T/C on day 7 [1, 8]: 0.46**
T/C on day 13 [1, 8]: 0.10**
growth of xenografts ([1]; intravenously on days 0 and 7 at 3 or 1.5 mg/kg/dose): inhibits the growth

CC(=O)O[C@H]1C(=O)[C@@]2(C)[C@H]([C@H](OC(=O)c3ccccc3)[C@]3(O)C[C@H](OC(=O)[C@H](O)[C@@H](NC(=O)c4ccccc4)c4ccccc4)C(C)=C1C3(C)C)[C@]1(OC(C)=O)CO[C@@H]1C[C@@H]2O [Paclitaxel, reference compound]
[3H]Colchicine binding, Mean [2]: 93 % of control
pIC50 (COLO 205 cells; Homo sapiens, 72 h): 8.48
IC50 (S1-M1 cells; Homo sapiens): 2.7 nM

CC[C@]1(O)C[C@H]2CN(CCc3c([nH]c4ccccc34)[C@@](C(=O)OC)(c3cc4c(cc3OC)N(C=O)[C@H]3[C@@](O)(C(=O)OC)[C@H](OC(C)=O)[C@]5(CC)C=CCN6CC[C@]43[C@@H]65)C2)C1 [Vincristine, reference compound]
[3H]Colchicine binding, Mean [2]: 99 % of control
pIC50 (COLO 205 cells; Homo sapiens, 72 h): 8.59
IC50 (S1-M1 cells; Homo sapiens): 7.9 nM
Ratio (S1-M1 cells): 0.6
